The record followed here is patent publication US11648254B2 (Kumquat Biosciences Inc., priority 2021, dated 2023).

Assay [1] concerns NCI-H1975 cells (EGFR T790M L858R). Put plainly: EGFR-SOS cellular inhibition assay (CellTiter-Glo, 3D). In kind it is cell-based. Conditions: Homo sapiens.
In a further assay the target is SOS1 (Homo sapiens (Human), UniProt Q07889). Put plainly: Ras-SOS interaction assay (HTRF). In kind it is biochemical.
For assay [2], the system named is MIA PaCa-2 cells (K-Ras G12C). Put plainly: Ras-SOS cellular growth inhibition assay (CellTiter-Glo, 3D). In kind it is cell-based. Conditions: Homo sapiens. In a few lines:
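Growth read by CellTiter-Glo luminescence about 5 days after dosing with 3-fold dilutions (9 points), added one day post-seeding. Cells: MIA PaCa-2, 3D culture on ultra-low-attachment surface, medium DMEM/Ham's F12 plus 10% FCS and 2.5% horse serum; IC50 by four-parameter fit.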

The mark [3] stands for this setting: 120 h, NCI-H1975, 3D proliferation, about 5 days, read-out: Bio-Cell-Prolif-3D (H1975 IC50).
[4] abbreviates: NCI-H1975, EGFR T790M L858R, read-out: IC50 in inhibiting growth of NCI-H1975 cell line.
The mark [5] stands for this setting: K-RasG13D utilized, read-out: IC50 inhibition of SOS.
The mark [6] stands for this setting: K-RasG13D, read-out: IC50 value against SOS1.
The mark [7] stands for this setting: MIA PaCa-2, 120 h, MIA PaCa-2, 3D proliferation, about 5 days, read-out: Bio-Cell-Prolif-3D (MiaPaca2 IC50).
Where [8] appears, read: MIA PaCa-2, MIA PaCa-2, read-out: IC50 in inhibiting MIA PaCa-2 cell growth.

Where two headings read alike, the source gives them in different places. Some results are limits rather than exact numbers.

SOS1, sequence (Q07889 564-1049): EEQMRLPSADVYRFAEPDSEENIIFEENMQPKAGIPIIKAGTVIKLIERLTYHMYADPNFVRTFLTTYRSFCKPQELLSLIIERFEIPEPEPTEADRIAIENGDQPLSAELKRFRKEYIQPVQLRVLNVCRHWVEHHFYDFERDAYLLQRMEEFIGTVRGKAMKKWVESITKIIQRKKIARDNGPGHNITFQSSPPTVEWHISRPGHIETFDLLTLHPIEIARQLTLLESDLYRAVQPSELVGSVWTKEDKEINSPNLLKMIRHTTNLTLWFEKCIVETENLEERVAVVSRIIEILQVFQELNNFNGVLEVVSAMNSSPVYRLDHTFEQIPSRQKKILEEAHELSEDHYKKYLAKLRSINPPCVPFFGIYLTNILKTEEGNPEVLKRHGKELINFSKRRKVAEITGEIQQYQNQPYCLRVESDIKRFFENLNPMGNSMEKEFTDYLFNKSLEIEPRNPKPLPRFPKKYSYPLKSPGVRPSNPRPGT

As for `COc1nc2nc(C)nc(N[C@H](C)c3cccc(C(F)(F)F)c3F)c2cc1C1CCN(C)CC1` [Compound 309, (R)-N-(1-(2-fluoro-3-(trifluoromethyl)phenyl)ethyl)-7-methoxy-2-methyl-6-(1-methylpiperidin-4-yl)pyrido[2,3-d]pyrimidin-4-amine], the IC50 in assay [1] (setting [3]) was no more than 1000 nM; in assay [1] (setting [4]), less than 500 nM; at SOS1 (setting [5]) it was less than 100 nM; on SOS1 (setting [6]), less than 50 nM; in assay [2] (setting [7]) it was no more than 1000 nM.

As for `Cc1nc(N[C@H](C)c2cccc(C(F)(F)CO)c2F)c2cc(C3(C#N)CC3)c(N3CCN(C(C)C)CC3)nc2n1` [Compound 347, (R)-1-(4-((1-(3-(1,1-difluoro-2-hydroxyethyl)-2-fluorophenyl)ethyl)amino)-7-(4-isopropylpiperazin-1-yl)-2-methylpyrido[2,3-d]pyrimidin-6-yl)cyclopropane-1-carbonitrile], the IC50 was no more than 1000 nM in assay [1] (setting [3]); less than 500 nM in assay [1] (setting [4]); less than 100 nM on SOS1 (setting [5]); less than 50 nM at SOS1 (setting [6]); no more than 1000 nM in assay [2] (setting [7]); less than 500 nM in assay [2] (setting [8]).

With `Cc1nc(N[C@H](C)c2cccc(C(F)F)c2F)c2cc(C3CCN(C)CC3)c(OCCN(C)C)nc2n1` [Compound 334, (R)-N-(1-(3-(difluoromethyl)-2-fluorophenyl)ethyl)-7-(2-(dimethylamino)ethoxy)-2-methyl-6-(1-methylpiperidin-4-yl)pyrido[2,3-d]pyrimidin-4-amine], the IC50 in assay [1] (setting [4]) is less than 500 nM; on SOS1 (setting [5]), less than 100 nM; at SOS1 (setting [6]), less than 50 nM; in assay [2] (setting [8]) it was less than 500 nM.

With `CCN1CCN(c2cc3c(N[C@H](C)c4cccc(C(F)F)c4F)ncnc3nc2OC)CC1` [Compound 372, (R)-N-(1-(3-(difluoromethyl)-2-fluorophenyl)ethyl)-6-(4-ethylpiperazin-1-yl)-7-methoxypyrido[2,3-d]pyrimidin-4-amine], the IC50 in assay [1] (setting [3]) is no more than 1000 nM; in assay [1] (setting [4]) it was less than 500 nM; on SOS1 (setting [5]), less than 100 nM; in assay [2] (setting [7]) it was no more than 1000 nM; in assay [2] (setting [8]), less than 500 nM.

Regarding `COc1nc2nc(CCN3CCC3)nc(N[C@H](C)c3cccc(C(F)(F)F)c3F)c2cc1C1(C#N)CC1` [Compound 217, (R)-1-(2-(2-(azetidin-1-yl)ethyl)-4-((1-(2-fluoro-3-(trifluoromethyl)phenyl)ethyl)amino)-7-methoxypyrido[2,3-d]pyrimidin-6-yl)cyclopropane-1-carbonitrile], the IC50 in assay [1] (setting [3]) was no more than 1000 nM; in assay [1] (setting [4]) it was less than 500 nM; on SOS1 (setting [6]) it was less than 50 nM; in assay [2] (setting [7]), no more than 1000 nM.

Turning to `Cc1nc(N[C@H](C)c2cccc(C(F)F)c2F)c2cc(C3CCN(C(C)C)CC3)c(Cl)nc2n1` [Compound 104, (R)-7-chloro-N-(1-(3-(difluoromethyl)-2-fluorophenyl)ethyl)-6-(1-isopropylpiperidin-4-yl)-2-methylpyrido[2,3-d]pyrimidin-4-amine], the IC50 in assay [1] (setting [3]) was no more than 1000 nM; in assay [1] (setting [4]), less than 500 nM; on SOS1 (setting [5]), less than 100 nM; at SOS1 (setting [6]) it was less than 50 nM; in assay [2] (setting [7]), no more than 1000 nM; in assay [2] (setting [8]), less than 500 nM.

As for `COc1nc2nc(C)nc(N[C@H](C)c3cccc(C(F)F)c3F)c2cc1C1(C#N)CCS(=O)(=O)CC1` [Compound 126, (R)-4-(4-((1-(3-(difluoromethyl)-2-fluorophenyl)ethyl)amino)-7-methoxy-2-methylpyrido[2,3-d]pyrimidin-6-yl)tetrahydro-2H-thiopyran-4-carbonitrile 1,1-dioxide], the IC50 in assay [1] (setting [3]) is no more than 1000 nM; in assay [1] (setting [4]), less than 500 nM; at SOS1 (setting [5]), less than 100 nM; at SOS1 (setting [6]), less than 50 nM; in assay [2] (setting [7]) it was no more than 1000 nM.
